Experimental data published in patent US10774122B2, “ERG targeted therapy” (The Regents of the University of Michigan, priority 2017, dated 2020).
One block for each compound: values may come before it. Where a SMILES comes first, the peptide text is derived from it. The star is where a group is joined. Biotin = O=C1N[C@H]2[C@H](CS[C@H]2CCCCC(=O)*)N1

How the values were obtained:
[1] = molecular target: T1, ERG (Homo sapiens, UniProt P11308)
T1 sequence (P11308 1-479): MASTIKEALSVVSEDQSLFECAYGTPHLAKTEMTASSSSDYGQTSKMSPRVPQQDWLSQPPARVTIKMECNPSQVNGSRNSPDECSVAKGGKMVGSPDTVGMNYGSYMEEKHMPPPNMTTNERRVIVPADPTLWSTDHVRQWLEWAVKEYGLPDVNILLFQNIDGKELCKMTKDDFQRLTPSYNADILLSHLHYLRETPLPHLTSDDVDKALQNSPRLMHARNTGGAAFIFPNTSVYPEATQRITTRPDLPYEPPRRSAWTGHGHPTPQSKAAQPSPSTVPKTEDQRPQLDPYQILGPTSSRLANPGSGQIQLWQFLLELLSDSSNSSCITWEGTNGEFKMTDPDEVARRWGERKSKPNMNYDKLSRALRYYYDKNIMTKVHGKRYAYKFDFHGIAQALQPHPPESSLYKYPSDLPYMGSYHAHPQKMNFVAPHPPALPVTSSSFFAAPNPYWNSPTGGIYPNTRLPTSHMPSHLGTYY
Description: The interaction coefficients between ERG and synthetic peptides or peptidomimetics were determined by biolayer interferometry technology using the Octet Red system (ForteBio). Purified ERG and GUS proteins were biotinylated by EZLink NHS-PEG4 Biotinylation Kit (Thermo Scientific) following the manufacturer's protocol and any unincorporated biotin was removed from the reactions with Zeba 2 ml desalt columns (Thermo). Biotinylated proteins (500 μg/ml) were then incubated with super streptavidin biosensors in binding buffer (20 mM HEPES pH 7.4, 150 mM NaCl), blocked with 10 μg/ml biocytin and washed three times in binding buffer. Peptides were serially diluted in binding buffer, mixed with the protein-coupled biosensors and peptidomimetic:protein association/dissociation was monitored for 10 min at 25° C. Nonspecific binding from the signal obtained from peptidomimetic:GUS interactions was subtracted from that of peptidomimetic:ERG interactions and baseline signal drift was controlled by monitoring immobilized ERG without peptide. Octet Red analysis software was used to analyze the data.

[2] = molecular target: T2, wild-type ERG (wtERG) (Homo sapiens, UniProt P11308); assay: Pull-down of purified recombinant proteins with biotin-peptides; assay type: binding; conditions: purified recombinant protein
T2 construct: cDNAs encoding full-length ERG and GUS were cloned into pDEST10 vector; His; made in house; host or cells: SF9 insect cells (Bac-to-Bac baculovirus)
Description: (A) Pull-down experiment was performed by incubating purified recombinant proteins and biotin-peptides. (B-C) Representative sensorgrams for both wtERG and ERG_Y373A binding to EIP1. Real-time binding was measured by immobilization of biotinylated proteins to the streptavidin biosensors and subsequent interactions with varying concentrations of synthetic peptides as indicated. (D) Steady-state analysis of real-time binding data for wtERG/ERG_Y373A and synthetic peptides. (E) Electrophoretic mobility shift assay (EMSA) for ERG and ETS binding sequence (EBS).

[3] = molecular target: T3, VCaP ERG (Homo sapiens, UniProt P11308); assay: Pull-down from whole cell lysates normalized for ERG levels; assay type: binding
T3 construct: endogenous in cells; host or cells: VCaP cells (ATCC): cultured cells, lysates or extracts, or VCaP xenograft tumours in nude mice
Description: (§1) Approximately 1 mg of soluble VCaP cell lysate prepared in RIPA buffer (Invitrogen) was incubated with varying amounts of biotinylated peptides for 2 hours at 4° C. HaloLink agarose beads (20 μl) were added to the peptide-lysate mixture and incubated for an additional 4 hours. Beads were then pelleted by centrifugation, washed three times in PBS-T and loaded into an SDSPAGE gel followed by Western blot analysis. Total VCaP cell lysate was loaded for positive control.
It was then determined whether RI-EIP affects normal ERG function.

[4] = molecular target: T4, HUVEC ERG (Homo sapiens, UniProt P11308); assay: as above; assay type: binding
T4 construct: wild-type ERG expressed in human or murine endothelial cells; endogenous in cells; host or cells: HUVEC (human umbilical vein endothelial cells)

[5] = molecular target: T1, ERG; remark: listed apart in the source
Description: (§2) Halo fusion proteins were expressed using the TNT® SP6 High-Yield Wheat Germ kit (Promega) following the manufacturer's protocol.

[6] = molecular target: T5, TMPRSS2:ERG gene fusion product (endogenous ERG) (Homo sapiens, UniProt P11308); assay: Biotin-peptide pull-down from VCaP cell lysates, immunoblot and mass spectrometry; assay type: binding; conditions: 53 kDa band of pull-downs, mass spectrometry
T5 construct: endogenous in cells; host or cells: VCaP cells (ATCC): cultured cells, lysates or extracts, or VCaP xenograft tumours in nude mice
Description: as §1
The samples were treated with SDS loading buffer supplied with 10 mM DTT for 5 min at 85° C. The proteins were alkylated by adding iodoacetamide to the final concentration of 15 mM. The samples were subjected to SDS-PAGE and the whole lanes were cut out and digested with trypsin in-gel for 2 hours. […]
The resulting spectrum files were transformed into MGF format by MSConvert software and interrogated by MASCOT 2.4 search engine using human UniProt database version 15 concatenated with reverse sequences for estimation of false discovery rate (FDR) and with a list of common contaminants. […] The peptide FDR was calculated as 2×(decoy_hits)/(target+decoy hits). Spectral counts for all detected proteins were assembled using an in-house written Python script. […]

[7] = molecular target: ERG_Y373A (Homo sapiens, UniProt P11308, Y373A)
Chain of ERG_Y373A (P11308 whole entry Y373A): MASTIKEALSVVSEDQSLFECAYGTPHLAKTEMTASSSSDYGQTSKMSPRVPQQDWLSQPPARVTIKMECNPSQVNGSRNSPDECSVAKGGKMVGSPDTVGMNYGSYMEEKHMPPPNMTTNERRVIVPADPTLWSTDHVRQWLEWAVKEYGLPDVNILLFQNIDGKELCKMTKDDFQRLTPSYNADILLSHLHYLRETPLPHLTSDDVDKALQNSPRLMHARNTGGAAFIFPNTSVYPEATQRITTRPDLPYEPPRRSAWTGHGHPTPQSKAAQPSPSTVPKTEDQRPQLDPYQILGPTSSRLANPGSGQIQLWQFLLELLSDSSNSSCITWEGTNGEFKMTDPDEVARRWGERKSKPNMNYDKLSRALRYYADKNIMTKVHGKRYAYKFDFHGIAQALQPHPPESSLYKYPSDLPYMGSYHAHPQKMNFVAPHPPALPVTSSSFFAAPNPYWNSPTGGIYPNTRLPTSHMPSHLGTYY
Description: as §2

[8] = human, in vivo; cited from earlier work
[9] = molecular target: PSMA (Homo sapiens, UniProt Q04609); conditions: reported in literature; cited from earlier work
Chain of PSMA (Q04609 whole entry): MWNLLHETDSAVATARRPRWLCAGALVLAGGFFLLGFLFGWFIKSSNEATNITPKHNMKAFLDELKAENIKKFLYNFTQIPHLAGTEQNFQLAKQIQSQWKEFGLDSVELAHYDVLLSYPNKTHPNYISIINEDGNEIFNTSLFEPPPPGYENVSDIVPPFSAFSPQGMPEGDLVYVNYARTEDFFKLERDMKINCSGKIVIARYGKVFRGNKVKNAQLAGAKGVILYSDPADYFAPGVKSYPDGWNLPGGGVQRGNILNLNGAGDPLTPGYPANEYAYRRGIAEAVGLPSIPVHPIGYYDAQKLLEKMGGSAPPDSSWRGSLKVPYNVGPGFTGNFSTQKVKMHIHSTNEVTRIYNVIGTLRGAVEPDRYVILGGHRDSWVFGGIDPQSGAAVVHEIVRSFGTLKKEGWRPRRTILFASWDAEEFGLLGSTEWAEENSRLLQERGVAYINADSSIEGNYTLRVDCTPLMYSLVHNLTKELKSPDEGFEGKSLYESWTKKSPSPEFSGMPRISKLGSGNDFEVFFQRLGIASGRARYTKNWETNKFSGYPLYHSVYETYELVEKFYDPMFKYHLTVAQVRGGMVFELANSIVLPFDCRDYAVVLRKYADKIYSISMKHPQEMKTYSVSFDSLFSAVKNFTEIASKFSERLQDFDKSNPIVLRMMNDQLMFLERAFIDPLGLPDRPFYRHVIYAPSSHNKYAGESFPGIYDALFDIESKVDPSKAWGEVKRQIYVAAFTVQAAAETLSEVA

[10] = molecular target: GRPR (Homo sapiens, UniProt P30550); conditions: Peptides 13, 775 (1992); cited from earlier work
Chain of GRPR (P30550 whole entry, species assumed): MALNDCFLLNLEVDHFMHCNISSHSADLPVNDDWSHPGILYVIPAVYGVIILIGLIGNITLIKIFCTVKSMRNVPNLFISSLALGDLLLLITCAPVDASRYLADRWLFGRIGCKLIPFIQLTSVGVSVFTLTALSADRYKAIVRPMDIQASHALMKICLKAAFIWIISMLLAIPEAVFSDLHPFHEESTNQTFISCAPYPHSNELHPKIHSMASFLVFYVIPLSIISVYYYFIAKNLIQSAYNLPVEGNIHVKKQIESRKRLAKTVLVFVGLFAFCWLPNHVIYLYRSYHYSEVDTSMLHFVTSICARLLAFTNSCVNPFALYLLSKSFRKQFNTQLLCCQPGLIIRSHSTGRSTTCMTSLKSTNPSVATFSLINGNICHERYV

Compound: CC(C)C[C@H](NC(=O)CCCC[C@@H]1SC[C@@H]2NC(=O)N[C@@H]21)C(=O)N[C@@H](CO)C(=O)N[C@@H](Cc1ccccc1)C(=O)NCC(=O)N[C@@H](CO)C(=O)N[C@@H](CC(C)C)C(=O)N1CCC[C@H]1C(=O)O [biotin-EIP2, Biotin-LSFGSLP] (Biotin-LSFGSLP-OH)
- interaction with ERG [5]: interact strongly
- spectral counts for the ERG peptide NTGGAAFIFPNTSVYPEATQR [6]: 111 spectral counts
- interaction with ERG (Y373A) [7]: No interaction was detected

Compound: CCNC(=O)[C@@H]1CCCN1C(=O)[C@H](CCCNC(=N)N)NC(=O)[C@H](CC(C)C)NC(=O)[C@@H](CC(C)C)NC(=O)[C@H](Cc1ccc(O)cc1)NC(=O)[C@H](CO)NC(=O)[C@H](Cc1c[nH]c2ccccc12)NC(=O)[C@H](Cc1c[nH]cn1)NC(=O)[C@@H]1CCC(=O)N1 [Leuprolide, pyro-EHWSY1LRP-NHEt]
- half life [8]: 3 h

Compound: O=C(O)CC[C@H](NC(=O)N[C@@H](CCCCN(Cc1ccc(Br)cc1)C(=O)CCOCCOCCOCCOCCOCCOCCOCCOCCOCCOCCOCCOCCNC(=O)CCCC[C@@H]1SC[C@@H]2NC(=O)N[C@@H]21)C(=O)O)C(=O)O [Analogue 3]
- IC50 [9]: 1.3 nM

Compound: fQWAVaHLM-OMe
- affinity as GRPR antagonist [10]: good affinity

More lines, now with the values ahead:

- binding to ERG [1]: most potent truncated peptides
Compound: H-PYLFT-NH2 [Compound 5PT-N, NH2-PYLFT-NH2]

- pull-down of wtERG [2]: pulled down
- amount of cell lysate for ERG pull-down [3]: 0.25 mg/mL
- amount of cell lysate for ERG pull-down [4]: 8 mg/mL
Compound: CC(C)C[C@H](NC(=O)[C@H](Cc1ccc(O)cc1)NC(=O)[C@@H]1CCCN1C(=O)[C@@H]1CCCN1C(=O)[C@H](CC(C)C)NC(=O)CCCC[C@@H]1SC[C@@H]2NC(=O)N[C@@H]21)C(=O)N[C@@H](Cc1ccccc1)C(=O)N[C@H](C(=O)O)[C@@H](C)O [Biotin-EIP1, Biotin-LPPYLFT] (Biotin-LPPYLFT-OH)
